{
  "source": "patent US8673851B2",
  "about": "“Synapse-specific proteins in glomeruli” (priority 2005, dated 2014)",
  "key": {"cultured mouse podocytes": {"test_system": "cultured mouse podocytes", "assay": "α-latrotoxin-stimulated glutamate release (enzymatic GDH/NADH assay)", "type": "cell-based", "description": "α-Latrotoxin stimulated glutamate release was detected by an enzymatic assay based on the following reaction that occurs in presence of glutamate dehydrogenase (GDH): Glutamate−+NAD++H20 ketoglutarate2−+NADH+[…]H+.\nBriefly, to this purpose, the same numbers of podocytes obtained from normal mouse glomeruli were plated and grown to semiconfluence. Before measurements, cells were washed and re-suspended for 1 hour at 37° C. in DME incubation buffer (NaCl 109.5 mM, KCl 5.3 mM, glucose 5.5 mM with MgCl2 1 mM, Hepes 20 mM). The medium was further supplemented with GDH (Sigma 60 U/ml) and NAD+ (Sigma 1 mM), and incubated for 5 min. Then, α-latrotoxin was added at subnanomolar (0.5 nM) or nanomolar (2.5 nM) concentration and spectrophotometric increase of optical density (O.D.) due to increase of NADH was monitored at 340 nm. 200 nM Bafilomycin A1 (Sigma), a V-ATPase inhibitor that dissipates the electrochemical proton gradient necessary for glutamate uptake and storage into vescicles43, was added for 30 min at 37° C. to control cell plates before α-latrotoxin stimulation."}, "cultured podocytes": {"test_system": "cultured podocytes", "assay": "Rab3A and glutamate staining of cultured podocytes before and after α-latrotoxin stimulus", "type": "cell-based, mouse", "details": "after nanomolar α-latrotoxin treatment", "from_the_text": "Panel b)-e): Rab3A (b, d) and glutamate (c, e) staining of cultured podocytes before (b, c) and after (d, e) nanomolar α-latrotoxin stimulus. Disappearance of most labeling from the processes of podocytes is evident after stimulation (indirect immunofluorescence, 450×)."}, "podocytes [1]": {"test_system": "podocytes", "type": "cell-based", "details": "for Calcium content (Fluo4) / Intra-vesicle pH (Lysosensor green) / Membrane potential (RH-414 accumulation and discharge): during stimulated exocytosis"}, "primary podocytes": {"test_system": "primary podocytes", "assay": "Synaptic vesicle recycling with styryl dye FM1-43", "type": "cell-based", "from_the_text": "The recycling of synaptic vesicles in nerve terminals is a complex multistep process, whose investigation has been made feasible by the use of styryl dyes. These molecules, that reversibly insert into the surface of lipid membranes, have no fluorescent properties in aqueous solution, but become intensely fluorescent upon membrane binding, allowing a labelling of recycling synaptic vesicles that is easily detectable by fluorescence microscopy."}, "cell membranes": {"test_system": "cell membranes", "details": "higher concentrations (>10 nM); cited from earlier work"}, "primary mouse podocytes": {"test_system": "primary mouse podocytes", "assay": "Phalloidin staining of the actin cytoskeleton", "type": "cell-based", "details": "24 h, 50 mM norketamine hydrochloride", "description": "A Phalloidin staining of primary mouse podocytes after 24 h medium incubation. The actin cytoskeleton is intact. Rhodamine-phalloidin, 100×)\nB Phalloidin staining of primary mouse podocytes after 24 h 50 mM norketamine hydrochloride incubation. […] (Rhodamine-phalloidin, 100×)\nBy immunohistochemistry, we have observed a variation of positivity, either increased or decreased, for other synaptic proteins, such as synapsin 1 (antibody from Abeam), and the ionotropic glutamate receptor NMDA-1 in a variety of human glomerulonephritis (FIG. 12)."}, "podocytes [2]": {"test_system": "podocytes", "assay": "[3H]-L-glutamate uptake", "type": "cell-based, mouse", "description": "Podocytes were seeded at a density of 15,000 cells/well in 48-well plates, Two days later the culture medium was removed, the adherent washed two times with 0.5 mL/well of assay buffer (10 mM Tris-acetate, 128 mM NaCl, 10 mM D-glucose, 5 mM KCl, 1.5 mM NaH2PO4, 1 mM MgSO4, 1 mM CaCl2, pH 7.4) and then incubated for 15 min at 35° C. in assay buffer (0.3 mL/well) containing 100 nM [3H]-L-glutamate (Amersham, specific activity 47.0 Ci/mmol) with or without different concentrations of cold L-glutamate (from 1 to 1000 μM). Non-specific uptake was determined in parallel samples incubated in a Na+-free buffer (NaCl replaced by cholineCl). […]\nIn preliminary experiments it was established that the uptake of [3H]-Lglutamate was linear at least up to 15 min (not shown). Cells were then added with 0.3 mL/well of SDS and, after 2 hours on shaking plate, the well content was counted in 4 mL of Ultima Gold MV (Packard Bioscience, Groningen, the Netherlands) in an LKB 1214 Rackbeta liquid scintillation counter with a counting efficiency of about 60%.\nKm and Vmax of L-glutamate uptake were determined by fitting the inhibition curve using the “homologous competitive binding curve” equation built into GrapPad Prism version 4.00 for Windows (GraphPad Software, San Diego Calif. USA). […]"}, "primary podocyte": {"test_system": "primary podocyte", "assay": "BDNF incubation, process formation (bright-field)", "type": "cell-based", "details": "250 ng/ml, 20 hour incubation", "description": "FIG. 18 • A) Bright-field image (200×) showing the in vivo appearance of a primary podocyte before BDNF treatment. • B) The same field is taken after 20 h of BDNF incubation. The cell has produced a number of processes starting from its body.\nWe have also observed that podocytes are sensitive to 250 ng/ml BDNF (Brain Derived Neurotrophic Factor) (Sigma): after 20 hour incubation with BDNF, in fact, the number of processes extending from the podocyte cell body are increased (FIG. 18)."}},
  "note": "Counter-ions that a name gives are not always drawn.",
  "data": [
    {"molecule": "α-latrotoxin", "values": [
      {"measurement": "Glutamate secretion (generation of NADH, optical density at 340 nm)", "setting": "cultured mouse podocytes; 0.5 nM α-latrotoxin", "value": "continuous exocytosis"},
      {"measurement": "Glutamate secretion (generation of NADH, optical density at 340 nm)", "setting": "cultured mouse podocytes; 2.5 nM α-latrotoxin", "value": "burst of neurotransmitter release, followed by steady state"},
      {"measurement": "Glutamate labeling of cell processes by immunohistochemistry", "setting": "cultured podocytes", "value": "disappearance of most glutamate from cell processes"},
      {"measurement": "Rab3A distribution by immunohistochemistry", "setting": "cultured podocytes", "value": "redistribution of Rab3A"},
      {"measurement": "Calcium content (Fluo4)", "setting": "podocytes [1]", "value": "rapid variation in calcium content"},
      {"measurement": "Intra-vesicle pH (Lysosensor green)", "setting": "podocytes [1]", "value": "variation of intra-vesicle pH"},
      {"measurement": "Membrane potential (RH-414 accumulation and discharge)", "setting": "podocytes [1]", "value": "rapid variation of the membrane potential"},
      {"measurement": "FM1-43 dye uptake", "setting": "primary podocytes; a few seconds after a first α-latrotoxin stimulus", "value": "accumulate the styryl dye FM1-43"},
      {"measurement": "FM1-43 dye release", "setting": "primary podocytes; after a second α-latrotoxin stimulation", "value": "almost completely discharge the dye"},
      {"measurement": "Damage to cell membranes", "setting": "cell membranes", "value": "highly damaging for cell membranes"}
    ]},
    {"molecule": "[Cl-].[K+]", "note": "[KCl]", "values": [
      {"measurement": "Induction of stimulated exocytosis", "setting": "podocytes [1]; 60 mM", "value": "can be induced"},
      {"measurement": "Calcium content (Fluo4)", "setting": "podocytes [1]", "value": "rapid variation in calcium content"},
      {"measurement": "Intra-vesicle pH (Lysosensor green)", "setting": "podocytes [1]", "value": "variation of intra-vesicle pH"},
      {"measurement": "Membrane potential (RH-414 accumulation and discharge)", "setting": "podocytes [1]", "value": "rapid variation of the membrane potential"}
    ]},
    {"molecule": "NC1(c2ccccc2Cl)CCCCC1=O", "note": "(centres unmarked) [norketamine hydrochloride]", "values": [
      {"measurement": "Actin cytoskeleton (rhodamine-phalloidin)", "setting": "primary mouse podocytes", "value": "profound alteration of the actin cytoskeleton"}
    ]},
    {"molecule": "CO/C1=C\\C(C)=C\\[C@@H](C)[C@@H](O)[C@@H](C)C/C(C)=C/C=C/[C@H](OC)[C@@H]([C@@H](C)[C@@H](O)[C@H](C)[C@@]2(O)C[C@@H](O)[C@H](C)[C@@H](C(C)C)O2)OC1=O", "note": "[bafilomycin, Bafilomycin A1]", "values": [
      {"measurement": "Glutamate release after α-latrotoxin", "setting": "cultured mouse podocytes; bafilomycin added 30 min before latrotoxin (0.5 nM or 2.5 nM α-latrotoxin), 200 nM Bafilomycin A1", "value": "Absence of glutamate release"}
    ]},
    {"molecule": "N[C@@H](CCC(=O)O)C(=O)O", "note": "[L-glutamate]", "values": [
      {"measurement": "Km", "setting": "podocytes [2]; Na+-dependent uptake, 100 nM [3H]-L-glutamate, 15 min at 35° C.", "value": 83, "unit": "µM"},
      {"measurement": "Vmax of L-glutamate uptake", "setting": "podocytes [2]; estimated, 15,000 cells/well seeded", "value": "about 2 pmol/min/well"}
    ]},
    {"molecule": "tetanus toxin", "values": [
      {"measurement": "Block of exocytotic events", "setting": "podocytes [1]", "value": "can be blocked"}
    ]},
    {"molecule": "BDNF: Brain Derived Neurotrophic Factor (Sigma) (protein, UniProt P23560 19-247, looked up) Neurotrophic factor BDNF …: APMKEANIRGQGGLAYPGVRTHGTLESVNGPKAGSRGLTSLADTFEHVIEELLDEDQKVRPNEENNKDADLYTSRVMLSSQVPLEPPLLFLLEEYKNYLDAANMSMRVRRHSDPARRGELSVCDSISEWVTAADKKTAVDMSGGTVTVLEKVPVSKGQLKQYFYETKCNPMGYTKEGCRGIDKRHWNSQCRTTQSYVRALTMDSKKRIGWRFIRIDTSCVCTLTIKRGR", "values": [
      {"measurement": "Number of processes extending from the podocyte cell body", "setting": "primary podocyte", "value": "increased"}
    ]}
  ]
}
